Data reported in publication PMC3973950, “Synthesis of 5-arylidine amino-1,3,4-thiadiazol-2-[(N-substituted benzyol)]sulphonamides endowed with potent antioxidants and anticancer activity induces growth inhibition in HEK293, BT474 and NCI-H226 cells” (Medicinal Chemistry Research, 2013).

Test: Superoxide anion radical scavenging (NBT/NADH/PMS)
Assay type: biochemical
Settings: Conc. ± SD; standard catechin; read-out: IC50 inhibitory concentration, Superoxide anion
Description: Measurement of superoxide anion scavenging activity of the synthesized compound was taken based on the method described by Nishimiki et al. ([1972]) and slightly modified. […] The reaction mixture was incubated at 25 °C for 5 min, and the absorbance at 560 nm was measured against blank samples. Catechin was used as reference compound. All the experiments were performed in triplicate, and the results were averaged. The percentage of inhibition was determined by comparing the results of control and test samples. The IC50 (nM/mL) value are depicted in Table 1.

Question: Which IC50 does the source give for `Oc1cc(O)c2c(c1)O[C@H](c1ccc(O)c(O)c1)[C@@H](O)C2` [catechin, reference compound] here?
Answer: 171 ± 9.1 µM
